Results published in paper PMC10793205, “Differential transmetallation of complexes of the anti-cancer thiosemicarbazone, Dp4e4mT: effects on anti-proliferative efficacy, redox activity, oxy-myoglobin and oxy-hemoglobin oxidation” (Chemical Science, 2023).
“Also recorded” adds a separate entry of the source.

What was measured:
[1] = molecular target: oxy-Hb (Homo sapiens, UniProt P68871+P69905); experiment: Oxidation of purified oxy-Hb to met-Hb (UV-vis); type: biochemical; conditions: 10 μM agent, oxy-Hb 40 μM, 1–3 h/20 °C
Text: As such, it was important to examine the effect of the Dp4e4mT complexes on oxy-Hb and oxy-Mb oxidation (Fig. 6 and 7). Comparisons were made to three controls, namely DFO, Dp44mT, and DpC, as well as their Fe(III) complexes. […] In contrast, the Fe(III) complexes of Dp44mT and DpC were positive controls, as they induce oxidation of oxy-Mb.[28,39,42]
Fig. 7 (A and B) Investigation of the effects of Dp4e4mT and its Fe(III), Co(III), Ni(II), Cu(II), Zn(II), Ga(III), and Pd(II) complexes versus DFO, Dp44mT, DpC and their Fe(III) complexes (10 μM) on met-Hb generation (% zero time) after an incubation of 1–3 h/20 °C with purified oxy-Hb (40 μM). (C) Investigation of the effects of Dp4e4mT and its Fe(III), Co(III), Ni(II), Cu(II), Zn(II), Ga(III), or Pd(II) complexes relative to the positive controls DFO, Dp44mT, DpC, and their Fe(III) complexes (10 μM) on oxy-Hb oxidation in intact human erythrocytes after a 3 h/37 °C incubation. Results are mean ± SD (3 experiments).
Spectroscopic Examination of Met-Mb and Met-Hb Formation from Oxy-Mb and Oxy- […]
Oxy-Mb and oxy-Hb solutions were prepared following established protocols.8, 17 In brief, solutions of reduced Mb and Hb in PBS (pH 7.2) were prepared by adding 1.2 mL of Na2S2O4 (12 mM) to 38 mL of met-Mb and met-Hb solution (40 μM). 17 Subsequently, oxy-Mb and oxy-Hb were generated by gently passing 150 mL of oxygen (from an air-filled syringe) through the solution containing reduced Mb and Hb, effectively eliminating any residual Na2S2O4. Following this, the oxy-Mb and oxy-Hb solutions were passed through a PD-10 column prepacked with 8.3 mL of Sephadex G-25 and equilibrated with PBS (pH 7.2). 17 In experiments examining the activity of the agents, all complexes were dissolved in 1,2-propanediol, then diluted to 10 µM in PBS (pH 7.2). The experiments were conducted over incubations of 0 to 3 h with the agents. UV-Vis spectra covering the range of 300 to 700 nm were recorded at a temperature of 20°C using a Shimadzu UV−Vis spectrophotometer (UV-1800; Shimadzu, Kyoto, Japan). Concentrations of met-Mb and met-Hb, as well as reduced-Mb and reduced-Hb, were determined at 409 nm and 435 nm, respectively. Concentrations of oxy-Mb and oxy-Hb were determined at 544 nm and 582 nm, respectively. 17

[2] = Transmetallation kinetics with FeCl3 in DMSO (time-resolved UV-vis); type: physicochemical; conditions: for t½, transmetallation with FeCl3: FeCl3 in DMSO; for Observed pseudo first order rate constant kobs, FeCl3: 10-fold excess of FeCl3 in DMSO, 25 °C
Method: The capacity of the Fe(III), Ni(II), Co(III), Zn(II), Ga(III), and Pd(II) complexes of Dp4e4mT to transmetallate with Cu(II) and/or Fe(III) to result in redox active Cu(II) and Fe(III) complexes could be critical in understanding their anti-proliferative efficacy, redox activity, and ability to oxidize oxy-Mb and oxy-Hb. To examine this, LC-MS spectrometry was performed in DMSO after the addition of 1 equivalent of FeCl3 or Cu(OAc)2 and the solutions then incubated for 24 h/20 °C due to slow reaction kinetics. This solution was then diluted 1 : 1 in methanol and LC-MS performed using a mobile phase consisting of 90% MeOH, 9.9% water, and 0.1% formic acid (Fig. S2–S9 ^†). These investigations were supported by EPR studies in DMSO after the addition of 1 equivalent of FeCl3 or Cu(OAc)2 incubated under the same conditions (Fig. 3A–G). As a third method to investigate transmetallation, kinetic studies using time-resolved UV-vis spectroscopy were performed under pseudo-first order conditions with a 10-fold excess of FeCl3 or Cu(OAc)2 in DMSO (Fig. S11–S16 ^†). The pseudo-first order rate constants were calculated from the time-dependent UV-vis spectroscopy data (at all wavelengths) with Reactlab Kinetics[49] and collected in Table S2. ^† […]
Time-dependent UV-Vis absorption spectra were measured on an Agilent 8453 diode array UV−Vis spectrophotometer, equipped with a thermostatted (± 0.1 °C) multicell transport cooled by a Huber Ministat 230 recirculating cooling bath. Spectral analysis was carried out with Reactlab Kinetics. 10 […]
Table S2. Observed pseudo first order rate constants (k obs, s−1) for reactions of each Dp4e4mT complex with a 10-fold excess of Cu(OAc) 2 or FeCl 3 in DMSO or water (pH 7.4 or 5.0) at 25 °C. […]
[Co(Dp4e4mT)2]+ No reaction No reaction No reaction No reaction […]
a Reaction could not be deciphered by UV-Vis spectroscopy; bchlorido ligand hydrolysis

[3] = Cyclic voltammetry (redox potentials); type: physicochemical; conditions: 1 mM in MeCN/H2O 7 : 3 (v/v) + 0.1 M Et4NClO4, sweep rate 100 mV s^−1
Text: The redox potentials of Fe(III)- and Cu(II)-thiosemicarbazone complexes have been extensively studied and are important for understanding intracellular redox activity and ROS generation.[23,27,28,42] Considering this, the electrochemical properties of [Fe(Dp44mT)2]^+, [Fe(DpC)2]^+, [Fe(Dp4e4mT)2]^+, [Co(Dp4e4mT)2]^+, [Ni(Dp4e4mT)2], [Cu(Dp4e4mT)Cl], [Ga(Dp4e4mT)2]^+, and [Pd(Dp4e4mT)Cl] were investigated with cyclic voltammetry in MeCN : H2O (70 : 30 v/v; Fig. 4A and B). This solvent system was implemented to provide sufficient solubility and because it has been used by our laboratories previously to measure potentials of thiosemicarbazone complexes enabling effective comparison.[28,45,57–59]
Fig. 4 Cyclic voltammograms of: (A) [Fe(Dp44mT)2]^+, [Fe(DpC)2]^+, and [Fe(Dp4e4mT)2]^+. (B) [Co(Dp4e4mT)2]^+, [Ni(Dp4e4mT)2], [Cu(Dp4e4mT)Cl], [Ga(Dp4e4mT)2]^+, and [Pd(Dp4e4mT)Cl] (1 mM in MeCN/H2O 7 : 3 (v/v) + 0.1 M Et4NClO4) at a sweep rate of 100 mV s^−1. The voltammograms were recorded using a glassy carbon working electrode versus a […] (NHE). […]
Cyclic voltammograms were acquired for the Fe(III), Co(III), Ni(II), Cu(II), Ga(III), and Pd(II) complexes of Dp4e4mT utilizing a BAS100B/W potentiostat, equipped with an aqueous Ag/AgCl reference electrode, a glassy carbon working electrode, and a Pt wire auxiliary […]
electrode. […]

[4] = listed as Dp4e4mT Pd(II) complex

oxy-Hb, sequence (P69905 2-142 limits assumed): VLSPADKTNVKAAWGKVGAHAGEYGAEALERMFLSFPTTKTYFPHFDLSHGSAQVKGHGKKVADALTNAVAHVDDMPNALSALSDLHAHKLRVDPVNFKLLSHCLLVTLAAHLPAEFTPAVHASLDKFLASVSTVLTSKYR
oxy-Hb, sequence (P68871 2-147 limits assumed): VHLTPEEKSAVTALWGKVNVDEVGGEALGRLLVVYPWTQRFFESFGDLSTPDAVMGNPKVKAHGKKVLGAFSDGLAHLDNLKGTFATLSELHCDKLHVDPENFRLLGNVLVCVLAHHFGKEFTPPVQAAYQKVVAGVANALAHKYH

SMILES | Redox potential (mV vs. NHE) [3] | oxy-Hb oxidation, purified oxy-Hb (in words) [1] | Observed pseudo first order rate constant kobs, FeCl3 [2] | other results
CCN(C)C([S-])=NN=C(c1ccccn1)c1ccccn1.CCN(C)C([S-])=NN=C(c1ccccn1)c1ccccn1.[Ga+3] [[Ga(Dp4e4mT)2]^+] |  | significantly increased oxy-Mb and oxy-Hb oxidation |  | t½, transmetallation with FeCl3 [2]: 3 to 4 h; Redox potential (mV vs. NHE) ([3]; listed as Dp4e4mT Ga(III) complex): −533 mV vs. NHE; Redox potential (mV vs. NHE) ([3]; listed as [Ga(Dp4e4mT)2]^+/0): –533 (irreversible) mV vs. NHE
CCN(C)C([S-])=NN=C(c1ccccn1)c1ccccn1.CCN(C)C([S-])=NN=C(c1ccccn1)c1ccccn1.[Zn+2] [[Zn(Dp4e4mT)2]] |  | significantly increased oxy-Mb and oxy-Hb oxidation | 0.00891 s⁻¹ | t½, transmetallation with FeCl3 [2]: ~0.017 h
CCN(C)C([S-])=NN=C(c1ccccn1)c1ccccn1.[Cl-].[Cu+2] [[Cu(Dp4e4mT)Cl]] | −151 mV vs. NHE | lowest ability to oxidize oxy-Mb and oxy-Hb | No reaction | Redox potential (mV vs. NHE) ([3]; listed as [Cu(Dp4e4mT)(Cl)]^±): –151 mV vs. NHE
CCN(C)C([S-])=NN=C(c1ccccn1)c1ccccn1.CCN(C)C([S-])=NN=C(c1ccccn1)c1ccccn1.[Fe+3] [[Fe(Dp4e4mT)2]^+] | +70 mV vs. NHE |  |  | 

More lines, main results first:

Redox potential (mV vs. NHE) [3] | SMILES | oxy-Hb oxidation, purified oxy-Hb (in words) [1] | Observed pseudo first order rate constant kobs, FeCl3 [2] | other results
–642 mV vs. NHE | CCN(C)C([S-])=NN=C(c1ccccn1)c1ccccn1.CCN(C)C([S-])=NN=C(c1ccccn1)c1ccccn1.[Co+3] [[Co(Dp4e4mT)2]^+] | minimal impact | No reaction | oxy-Hb oxidation, purified oxy-Hb (in words) ([1]; listed as Dp4e4mT Co(III) complex): low levels of oxy-Hb oxidation
–626 (irreversible) mV vs. NHE | CCN(C)C([S-])=NN=C(c1ccccn1)c1ccccn1.[Cl-].[Pd+2] [[Pd(Dp4e4mT)Cl]] | minimal impact | No reaction | oxy-Hb oxidation, purified oxy-Hb (in words) [1, 4]: low levels of oxy-Hb oxidation; Redox potential (mV vs. NHE) [3, 4]: −626 mV vs. NHE
+647 mV vs. NHE | CCN(C)C([S-])=NN=C(c1ccccn1)c1ccccn1.CCN(C)C([S-])=NN=C(c1ccccn1)c1ccccn1.[Ni+2] [[Ni(Dp4e4mT)2]] | minimal impact | No reaction; also recorded: unreactive | oxy-Hb oxidation, purified oxy-Hb (in words) ([1]; listed as Dp4e4mT Ni(II) complex): low levels of oxy-Hb oxidation; extent of reaction with Fe(III) ([2]; DMSO, after 3 days): ~20%
